Results taken from ChEMBL document CHEMBL4043279 (Bioorg Med Chem Lett, 2017).

Tests used:
[1] = tested on: PC-3; experiment: Antiproliferative activity against human PC3 cells treated for 24 hrs measured after 72 hrs by MTT assay; type: functional, cell-based
[2] = tested on: HL-60; experiment: Antiproliferative activity against human HL60 cells treated for 24 hrs measured after 72 hrs by MTT assay; type: functional, cell-based
[3] = tested on: PBMC; experiment: Antiproliferative activity against human PBMC treated for 24 hrs measured after 72 hrs by MTT assay; type: cell-based
[4] = tested on: HepG2; experiment: Antiproliferative activity against human HepG2 cells treated for 24 hrs measured after 72 hrs by MTT assay; type: functional, cell-based
[5] = tested on: THP-1; experiment: Antiproliferative activity against human THP1 cells treated for 24 hrs measured after 72 hrs by MTT assay; type: functional, cell-based

Row | Structure (SMILES) | IC50 [1] | IC50 [2] | IC50 [3] | IC50 [4] | IC50 [5]
1 | CN1c2ccccc2C(=O)N2CCc3c([nH]c4ccccc34)C21 (stereo not drawn) | 14 µM | 1.39 µM | 22.9 µM | 9.32 µM | 3.37 µM
2 | COC(=O)[C@H](Cc1ccc(N(CCCl)CCCl)cc1)NC(=O)CCC(=O)O | > 100 µM | 5.34 µM | > 200 µM | 13.8 µM | 3.84 µM
3 | O=c1[nH]cc(F)c(=O)[nH]1 [FLUOROURACIL] | 23.9 µM | 3.69 µM |  |  | 4.87 µM
4 | COC(=O)[C@H](Cc1ccc(N(CCCl)CCCl)cc1)NC(=O)CCC(=O)OCCn1c2c(c3ccccc31)CCN1C(=O)c3ccccc3N(C)C21 (stereo partly drawn) | > 100 µM | 3.11 µM | > 200 µM | > 100 µM | 9.37 µM
5 | O=C(O)CCCc1ccc(N(CCCl)CCCl)cc1 [CHLORAMBUCIL] | 42.1 µM | 12.9 µM | > 200 µM | > 100 µM | 5.3 µM
